A short description of one data set: in vitro. The note with it: human, hela cells, % viability.
For the molecule `Cc1cnc(CNC(=O)Cn2nnc(-c3ccc(CN4CCC(C)CC4)cc3)n2)cn1` [CBK137067C], the viability at 28.5 h, 10 µM was found to be 101%.
In the case of `CC(=O)Nc1sc(/C(C#N)=C/c2cccc(Oc3ccccc3)c2)nc1-c1ccc(C)cc1` [CBK264895], the viability at 28.5 h, 10 µM is 98.4%.
With `FC(F)(F)c1cccc(Sc2ccc(Cl)c(Cl)c2)n1` [CBK089608], the viability at 28.5 h, 10 µM stood at 91.2%.
Still for that read-out and setting: under `O=C(O)CC1NC(=O)C(Cc2ccccc2)NC1=O` (stereo not shown) [CBK286827] stands 98.1%; under `Cc1ccc2c(c1)oc(=O)n2CCNC(=O)CC1c2ccccc2Oc2ccccc21` [CBK286194], 94.8%; under `COc1ccccc1-c1nnc(Sc2nc([N+](=O)[O-])nn2C)o1` [CBK266858], 85.1%.
On to `c1ncn(C2CCCCC2)c1C1CCCCC1` [CBK016758], for which the viability at 28.5 h, 10 µM came out at 101%.
Regarding `C#CCNC(=O)[C@@H]1Cc2cn(Cc3nccn3C)c3cccc(c23)[C@H](CC(C)C)N1` [CBK289424], the viability at 28.5 h, 10 µM was 108%.
Same read-out and setting: under `O=C(O)CCSc1nnc2[nH]c3ccccc3n12` [CBK265736] stands 108%; under `O=C1NC(c2ccccc2)Cc2onc(-c3ccccc3)c21` (stereo not shown) [CBK004409], 90.9%.
Turning to `O=C(O)Cn1cnc(-c2ccc(Br)cc2)c1` [CBK262441], the viability at 28.5 h, 10 µM worked out at 111%.
On to `Cc1cnc2[nH]c(C(F)(F)F)c(CN3CCSCC3)c2c1` [CBK284767], for which the viability at 28.5 h, 10 µM turned out to be 90%.
With `COc1ccc(CNc2nc(-c3ccc(C)cc3)nn2C(=O)c2cccc([N+](=O)[O-])c2)cc1` [CBK268546], the viability at 28.5 h, 10 µM was determined as 67.9%.
Take `CCC(CO)Nc1nccnc1-c1cccc(F)c1` (stereo not shown) [CBK036775]: the viability at 28.5 h, 10 µM amounted to 108%.
Same read-out and setting: under `Cc1ccccc1-c1cc(C(=O)Nc2ccc(S(N)(=O)=O)cc2)c2cc(Cl)ccc2n1` [CBK267741] stands 90%.
As to `COc1ccc(CC(=O)O)cc1S(=O)(=O)Nc1ccc(SC)cc1` [CBK298315], the viability at 28.5 h, 10 µM is 81%.
Regarding `Cc1nc(CN2CCCC3(CCN(C(=O)c4ccoc4)C3)C2)cs1` (stereo not shown) [CBK132838], the viability at 28.5 h, 10 µM worked out at 97.6%.
As to `C=CCOC(=O)N1CCC(C(=O)NC(c2ccccn2)c2ccccc2C)CC1` (stereo not shown) [CBK059689], the viability at 28.5 h, 10 µM came to 94%.
With `FC(F)(F)c1ccc(CN2CCN(c3nccnc3OCCN3CCOCC3)CC2)cc1` [CBK082890T], the viability at 28.5 h, 10 µM stood at 90.8%.
In the case of `COc1cccc(Nc2cc(-c3cccc(N)c3)ncn2)c1OC` [CBK090726], the viability at 28.5 h, 10 µM was 104%.
On to `Cc1ccccc1NS(=O)(=O)c1ccc(OCC(=O)N2CCN(c3cc(Cl)ccc3C)CC2)cc1` [CBK267649], for which the viability at 28.5 h, 10 µM stood at 94.5%.
Still for that read-out and setting: under `O=C(c1ccco1)N1CCN(C(=O)c2c(F)cccc2F)CC1` [CBK144479] stands 86.3%; under `O=C(NCCN1CCNCC1)c1ccccn1` [CBK278241C], 108%; under `O=C(CN1CCN(S(=O)(=O)N2CCCCC2)CC1)Nc1ccc(Br)cc1` [CBK269515], 91.7%.
With `O=C(O)CC(CP(c1ccccc1)c1ccccc1)C(=O)O` (stereo not shown) [CBK260931], the viability at 28.5 h, 10 µM came to 77.6%.
For the molecule `O=C(NCCc1cccs1)Nc1ccc(Cl)cc1C(F)(F)F` [CBK044825], the viability at 28.5 h, 10 µM stood at 86.1%.
With `COc1cccc(C2(NC(=O)CCn3nccc3C)CCCC2)c1` [CBK283601], the viability at 28.5 h, 10 µM was found to be 101%.
Regarding `O=C1C2N=NN(Cc3ccccc3)C2C(=O)N1C1CCCCC1` (stereo not shown) [CBK067389], the viability at 28.5 h, 10 µM worked out at 115%.
The same measure, in the same setting: to `COc1cc(-c2cnc(N)c(N3CCN(CCN(C)C)CC3)n2)cc(OC)c1OC` [CBK063488] belongs 94.4%; to `Cc1ccc(-c2nnc(CNC(=O)C3(c4ccccc4)CC3)o2)s1` [CBK284642], 95.9%; to `NC(=O)C1CCN(CC(=O)Nc2ccc([N+](=O)[O-])cc2C(=O)c2ccccc2)CC1` [CBK265782], 89.3%.
As to `c1ccc(-c2onc3cc4c(cc23)OCCO4)cc1` [CBK287869], the viability at 28.5 h, 10 µM was 82.8%.
For `COc1cc(C)c(NC(=O)c2cnc(-c3ccc(F)cc3)c(-c3ccncc3)c2)cc1OC` [CBK036575], the viability at 28.5 h, 10 µM was found to be 97.5%.
With `Cc1nn(C)cc1-c1cncn1CC(C)Oc1ccccc1Cl` (stereo not shown) [CBK281739], the viability at 28.5 h, 10 µM is 83.8%.
On to `Cc1nc2c3c(sc2c(=O)[nH]1)NC(=O)CC3c1ccccc1` (stereo not shown) [CBK288094], for which the viability at 28.5 h, 10 µM was 93.1%.
For the molecule `FC(F)(F)c1nc2ccccc2nc1SC1CCCCC1` [CBK107205], the viability at 28.5 h, 10 µM was 97.2%.
Regarding `Cc1ccc(S(=O)(=O)N(CC(O)CN2C(=O)NC(C)(C)C2=O)c2ccccc2[N+](=O)[O-])cc1` (stereo not shown) [CBK263572], the viability at 28.5 h, 10 µM came out at 95.3%.
With `O=C(Nc1ccccc1C(=O)O)c1cccc(C(=O)Nc2ccccc2C(=O)O)c1` [CBK261166], the viability at 28.5 h, 10 µM came to 105%.
The same measure, in the same setting: to `c1cnn(C2CCCN(Cc3ccc(Oc4cnccn4)cc3)C2)c1` (stereo not shown) [CBK304043] belongs 96.9%; to `O=C(O)CS(=O)(=O)c1ccc(Cl)cc1` [CBK262036G], 114%.
Turning to `Oc1cc(CCc2ccc(F)cc2)nc2ccnn12` [CBK281876], the viability at 28.5 h, 10 µM was found to be 88.9%.
For `c1ccc(C(=NCCN=C(c2ccccc2)c2ccccc2)c2ccccc2)cc1` [CBK262065], the viability at 28.5 h, 10 µM was determined as 113%.
As for `CCc1nc2c(OCc3ccccc3OC)cccn2c1N(C)C(=O)C(C)C` [CBK147763], the viability at 28.5 h, 10 µM is 97%.
The same measure, in the same setting: under `CN1CCN(CCC(=O)N/N=C/c2c[nH]c3ccccc23)CC1` [CBK261502] stands 94.7%.
`O=S(=O)(c1cc(Cl)sc1Cl)N1CCCCC1CO` (stereo not shown) [CBK051422]: the viability at 28.5 h, 10 µM worked out at 87.2%.
As for `CC1(CNC(=O)c2cc(C3CC3)nc3ccccc23)COC1` [CBK281752], the viability at 28.5 h, 10 µM worked out at 90%.
With `N=c1n(Cc2ccccc2)c2ccccc2n1CC(O)COc1ccc(Cl)cc1` (stereo not shown) [CBK262469C], the viability at 28.5 h, 10 µM turned out to be 94.4%.
In the case of `CCNC(=O)N1Cc2nc[nH]c2C[C@H]1C(=O)NCc1ccc(C#N)cc1` [CBK288975], the viability at 28.5 h, 10 µM came out at 96.2%.
In the case of `Cn1c(COc2ccccc2)nnc1SCc1nnc(-c2ccccc2)o1` [CBK269628], the viability at 28.5 h, 10 µM is 94.1%.
On to `c1ccc(Oc2ccc(Nc3cc(-c4ccc(N5CCOCC5)cc4)ncn3)cc2)cc1` [CBK090923], for which the viability at 28.5 h, 10 µM stood at 83.3%.
For the molecule `Cc1c(Cl)cccc1S(=O)(=O)Nc1nc(CCN2CCOCC2=O)cs1` [CBK003498K], the viability at 28.5 h, 10 µM came to 87.7%.
Regarding `O=C(Cc1ccccc1)N1C[C@@H]2CCCCN(CC3CC3)[C@@H]2C1` [CBK285497], the viability at 28.5 h, 10 µM was 111%.
For the molecule `OCc1ccccc1-c1cncc(NCC2CCOCC2)n1` [CBK037309], the viability at 28.5 h, 10 µM is 113%.
For the molecule `C=CCN(c1ccccc1)S(=O)(=O)c1ccc(Br)cc1CC` [CBK038344], the viability at 28.5 h, 10 µM turned out to be 95.8%.
Take `O=S(=O)(c1ccc(Cl)cc1)c1ccc2ccnc(N3CCCNCC3)c2c1` [CBK036416C]: the viability at 28.5 h, 10 µM is 82.9%.
With `COc1ccnc(Sc2ccc(Cl)cc2)c1C#N` [CBK018571], the viability at 28.5 h, 10 µM was determined as 92.2%.
Still for that read-out and setting: to `CC(Oc1ccc(Cl)cc1Cl)C(=O)Nc1ccc(O)cc1` (stereo not shown) [CBK264120] belongs 94.8%; to `CC(=O)Nc1ccc(CN2C[C@@H]3OCC(=O)N(C)[C@@H]3C2)cc1` [CBK289240], 85.5%; to `O=C(c1ccccc1F)N1CCCC1Cn1c(=O)oc2ccccc21` (stereo not shown) [CBK282926], 97.5%.
For the molecule `COc1ccc(S(=O)(=O)N2CCC(C(=O)Nc3cccc(F)c3)CC2)cc1C` [CBK267987], the viability at 28.5 h, 10 µM was 92%.
Still for that read-out and setting: under `COc1ccc(Oc2nccnc2N2CCN(Cc3ccc([N+](=O)[O-])cc3)CC2)cc1OC` [CBK083046T] stands 86.4%; under `CCN1C(=O)CC2(C1=O)C(=O)N(CCCOc1ccccc1)c1ccc(OC)cc12` (stereo not shown) [CBK075585], 98%.
As for `Cc1ccc(Oc2ccc([N+](=O)[O-])cc2)c(Br)c1` [CBK002832], the viability at 28.5 h, 10 µM amounted to 90.6%.
On to `O=C(/C=C/C=C/c1ccccc1)CC1(O)C(=O)N(Cc2cccc3ccccc23)c2ccccc21` (stereo not shown) [CBK264744], for which the viability at 28.5 h, 10 µM is 93.6%.
With `COc1ccc(-c2nnc3ccc(SCC(=O)N4CCCC4)nn23)cc1OC` [CBK287527], the viability at 28.5 h, 10 µM worked out at 85.9%.
Regarding `Cc1noc(N)c1C1OC(=O)c2ccccc21` (stereo not shown) [CBK022932], the viability at 28.5 h, 10 µM was determined as 104%.
Regarding `O=[N+]([O-])c1ccc(CN2CCC(Oc3cncc(OCC4COc5ccccc5O4)n3)C2)cc1` (stereo not shown) [CBK084369], the viability at 28.5 h, 10 µM came to 99.3%.
For the molecule `O=[N+]([O-])c1cccc(-c2ccc(OC3CCNCC3)cc2)c1` [CBK126465T], the viability at 28.5 h, 10 µM came to 98.8%.
For the molecule `O=C(O)CSc1c(NC(=O)c2ccccc2)sc2c1CCCC2` [CBK261062], the viability at 28.5 h, 10 µM turned out to be 97.5%.
Regarding `COc1ccc(CN2Cc3cccc(C(=O)O)c3C2=O)cc1OC` [CBK291237], the viability at 28.5 h, 10 µM stood at 83.5%.
`Cc1cccc(CSc2nnc(C(C)NC(=O)c3ccccc3F)n2C)c1` (stereo not shown) [CBK269732]: the viability at 28.5 h, 10 µM was 91.6%.
Turning to `COc1ccc2c(c1)C1(CC(=O)N(CC(=O)N(C)C)C1=O)C(=O)N2CC(=O)c1ccccc1` (stereo not shown) [CBK075913], the viability at 28.5 h, 10 µM was determined as 96.9%.
As for `O=C1NC2(CCc3ccccc31)CCN(Cc1ccncc1)C2` (stereo not shown) [CBK284610], the viability at 28.5 h, 10 µM amounted to 99%.
Turning to `Cc1ccc2c(c1)c(=O)cc(C(F)(F)F)n2C[C@H]1CCCN1` [CBK285303], the viability at 28.5 h, 10 µM was found to be 36.2%.
Still for that read-out and setting: to `COc1ccc(CNC2CCCc3c2cnn3C)c(OC)c1` (stereo not shown) [CBK304875] belongs 103%; to `FC(F)(F)c1ccnc(Sc2ccncc2)c1` [CBK093793], 92.3%; to `O=C(NC1CCCN(c2ncccn2)C1)c1ccc(-c2ccc(F)cc2)s1` (stereo not shown) [CBK298337], 88.5%.
With `CC1C2CCCN2CCN1Cc1cccc(Oc2ccccc2)c1` (stereo not shown) [CBK262880], the viability at 28.5 h, 10 µM came to 94.9%.

The same data set, now with this note: human, hela cells, % viability, bulk resorufin, single well.
Turning to `COc1ccc(N2C(=O)NC(=O)/C(=C\c3ccc(O)c(O)c3)C2=O)cc1` [CBK261436], the viability at 28.5 h, 10 µM was determined as 92%.
